Laboratory results reported in patent publication US10568923B2, “Plant parts and extracts having anticoccidial activity” (priority 2012, dated 2020).
“Also recorded” adds a separate entry of the source.

How the values were obtained:
[1] = tested on: mixed culture of oocysts of the species E. tenella, E. acervulina and E. maxima; experiment: In vivo challenge trial in broiler birds with mixed infection of coccidiosis (Examples 3, 10, 13); conditions: Example 10, 11, 22 and 55 ppm
[2] = tested on: E. maxima (isolate ID NKL/11/Ac1); experiment: Example 14: in vivo anticoccidial trial in Cobb 400 broilers challenged with E. maxima; set-up: species or system Eimeria maxima; conditions: day 6 post challenge
Text: The trial was designed with 11 treatment groups with 2 replicates per groups and 12 male birds per replicate. The groups included (1) uninfected control, (2) infected control, (3) positive control groups supplemented with Salinomycin (Coxistac) at the recommended dosage, (4) treatment group treated with 20 and 50 g/ton of pure THB, (5) encapsulated THB at 46.3, 92.6 and 185.2 g/ton of feed, and (6) microemulsion of THB at 138.9, 277.8 and 416.7 g/ton of feed. […] The parameters evaluated were lesion scoring on day 6 post challenge and oocysts shedding on day 7 post-challenge.
The trial was conducted at the R & D poultry farm facility of Kemin Animal Nutrition and Health (India), Gummidipundi. Straight run commercial hybrid broiler chickens, Gallus domesticus (Var. Vencobb 400) were used for the study. Day old male chicks were procured from Shanthi hatcheries, Coimbatore, India. Birds were weighed and examined for general health at receipt. The birds were individually identified by wing bands. The chicks were housed in mild steel cages which were cleaned, disinfected using Virkon S (Du Pont, India) and painted earlier. The birds were provided with ad libitum feed and water. No water sanitizers or antimicrobial compounds were used in the water or in the feed. The experimental design is detailed in Table 13. As this was a preliminary study to evaluate the effect of encapsulated and microemulsion of THB in controlling coccidiosis only 2 replicates were maintained.
The birds were fed with either feed containing no anticoccidial agent, THB, encapsulated THB, microemulsion of THB or Salinomycin (Coxistac, Pfizer, India) incorporated in the feed from day 1. THB was obtained from J P N Pharma, Mumbai, India
The oocysts of E. maxima (isolate ID NKL/11/Ac1) that were maintained at the Department of Veterinary Parasitology, Madras Veterinary College, Chennai were used for the induction of coccidiosis in the trial birds. The origin of the isolate was a broiler bird with clinical coccidiosis, and they were propagated in vivo to yield oocyst quantities sufficient for the study. […]

[3] = tested on: sporozoites of Eimeria tenella; experiment: In vitro anti-sporozoite activity by MTT reduction assay; format: cell-based; conditions: peaks separated by semi-preparative HPLC; compared to crude powder in equivalent concentrations
Method: Further, an in vitro method based on 3-(4,5-Dimethyl-2-thiazolyl)-2,5-diphenyl-2H-tetrazolium bromide (MTT) reduction assay was developed to evaluate the anti-sporozoite activity of plant extracts as a measure of the viability of the sporozoites. The optimized method included the preparation, sterilization and purification of sporozoites, followed by incubation of sporozoite suspension (minimum of 10^5 cells/ml) with required concentration of plant extract. The plant samples were prepared by mixing crude powder into a known volume of distilled water to achieve the specific ppm, vortexed for 2 min and filtered through a 0.2μ syringe filter. Following 24 h of incubation with the plant extracts, the sporozoites were thoroughly washed and then MTT assay was performed. MTT-PMS solution (0.2 millimolar each) is incubated with the sporozoite suspension (at 1:10 ratio) for 2 h at 41° C. […] The purple dye formazan is dissolved in 200 ul DMSO and the absorbance is measured at 530 nm against a reference wavelength of 630 nm.
Q. infectoria gall nut crude powder was fractionated using different solvent by column chromatography. The sample from each of the fractions was evaluated for their anti-sporozoite activity.
These four compounds were separated by semi-preparative HPLC and anti-sporozoite activity was evaluated in comparison to the crude powder in equivalent concentrations.

[4] = Example 15: compatibility with Tiamulin in commercial broilers (Ross 308), 42 days; format: in vivo, Gallus domesticus (Var. Ross 308); conditions: used in combination in feed of broilers
Method: Experimental facility and study design. An in vivo trial was conducted at Ramadootha poultry farm, Hyderabad, India. Straight run commercial hybrid broiler chickens, Gallus domesticus (Var. Ross 308) were used for the study. Day old male chicks were procured from Suguna Broilers, India. The birds were weighed individually, wing banded, and randomly segregated into groups. The experimental design is detailed in Table 18.
Details of treatment groups. The treated birds were fed with supplements incorporated in the feed from day 1 (Table 22).
Parameters analyzed. The parameters that were chosen for analyses were body weight, feed conversion ratio (FCR) on a weekly basis, mortality and leg weakness on daily basis.
Mean body weight. Birds from each of the groups were removed and weighed individually every week to calculate the weight gain. The cumulative average weight gain of the 8 replicates of each of the group was taken as the mean weight/week.
Feed Conversion ratio (FCR). The total feed consumption was monitored regularly and FCR was arrived at by dividing the feed consumed per bird by the final weight per bird.
Mortality. Mortality was recorded on daily basis and the total mortality was calculated and expressed as %. […]
Leg weakness. All birds were examined every day for the major clinical signs, leg weakness which was scored on a 0 to 4 scale. […]

[5] = tested on: E. tenella (Houghton strain); experiment: Example 1 screening trial: Q. infectoria in controlling caecal coccidiosis in broiler chickens; format: in vivo, Eimeria tenella; conditions: day 7 post infection; average of three replicates; Q. infectoria 100 g/ton feed, Coxistac 1000 g/ton
Method: The screening trial was conducted at a poultry farm facility located in Gummidipundi, India. Straight run commercial hybrid broiler chickens, Gallus domesticus (Var. Vencobb 400) were used for the study. Day old male chicks were procured, weighed individually, wing banded, and randomly segregated into groups. The experimental design is detailed in Table 1.
The treated birds were fed with plant extract incorporated in the feed from day 1 (Table 2). The crude powders of Q. infectoria gall nut were procured from Pooja herbs, Mumbai, India. […]
The excreta of the birds were monitored daily from the day 1 post infection to day 10 for their consistency, presence of blood, mucus, undigested feed, and orange color. […]
The mortality of the birds was recorded on a daily basis and post mortem was carried out to confirm the cause of death.
On day 5 and 7 post infection, 2 birds from each of the groups were sacrificed by cervical dislocation and the intestine was cut open. The caeca of the birds were scored for coccidiosis lesions. […]
Triplicate samples of the excreta of the birds were collected randomly from the tray kept below the cages and the oocyst per gram was evaluated.

| SMILES | Dose response (lesion score, OPG) [1] | Lesion score for E. tenella, E. maxima and E. acervulina ([1]; day 5 post infection, vs infected control and Salinomycin) | Lesion score (mid-gut) ([2]; pure THB at 25 and 50 ppm) | Lesion score (mid-gut) ([2]; pure THB at 25 and 50 ppm, listed as THB) | Anti-sporozoite activity of the four major HPLC peaks (MTT) [3] | Lesion score (mid-gut) ([2]; Coxistac at 500 g/ton of feed, vs infected control) | Compatibility with Tiamulin [4] | Average Oocysts Per Gram Excreta [5] |
| --- | --- | --- | --- | --- | --- | --- | --- | --- |
| O=C(O)c1cc(O)c(O)c(O)c1 (single isomer, unassigned) [gallic acid, 3,4,5-trihydroxybenzoic acid] | Dose dependent response was observed with no significant difference between gallic acid at 22 and 55 ppm | significant reduction in the score for all the three tested species | comparable efficacy | significant improvement in lesions scores when compared to the positive control | best anti-sporozoite activity |  |  |  |
| CC[C@@H](C(=O)[C@@H](C)[C@@H](O)[C@H](C)[C@@H]1O[C@@H]([C@@H](CC)C(=O)O)CC[C@@H]1C)[C@H]1O[C@]2(C=C[C@@H](O)[C@]3(CC[C@@](C)([C@H]4CC[C@](O)(CC)[C@H](C)O4)O3)O2)[C@H](C)C[C@@H]1C [Salinomycin, reference compound] |  |  |  |  |  | no significant reduction; also recorded: showed a reduction in lesion scores | indicates interaction | did not show any indication of reduction of oocysts |
